Experimental data: patent US8012983B2, “Substituted triazolopyrazines useful for the treatment of degenerative and inflammatory diseases” (Galapagos NV, priority 2008, dated 2011)

What was measured:
[1] = tested on: MMP1 expression by activated synovial fibroblasts (RASFs); assay: 'MMP assay': complex trigger-induced MMP1 expression by synovial fibroblasts (MMP1 ELISA); assay type: cell-based; conditions: Homo sapiens, Fibroblast; complex trigger activated SFs, 48 hrs, FIG. 3; read-out: IC50 value, reduction of MMP1 expression by SFs
Protocol: A 384-well format ELISA for measurement of MMP1 is developed. Various primary antibodies are tested, as well as various ELISA protocols. The following protocol is developed and validated to measure MMP1 levels in SF supernatant in 384 well plates: white Lumitrac 600 384 well plates (Greiner) are coated with 2 μg/mL anti-MMP1 antibody MAB1346 (Chemicon). The antibody is diluted in buffer 40 (1.21 g Tris base (Sigma), 0.58 g NaCl (Calbiochem) and 5 ml 10% NaN3 (Sigma) in 1 L milliQ water and adjusted to pH 8.5). After overnight incubation at 4° C., plates are washed with PBS (80 g NaCl, 2 g KCl (Sigma), 11.5 g Na2HPO4.7H2O and 2 g KH2PO4 in 10 L milliQ; pH 7.4) and blocked with 100 μL/well Casein buffer (2% Casein (VWR International) in PBS). Next day, casein buffer is removed from ELISA plates and replaced by 50 μL/well EC buffer (4 g casein, 2.13 g Na2HPO4 (Sigma), 2 g bovine albumin (Sigma), 0.69 g NaH2PO4.H2O (Sigma), 0.5 g CHAPS (Roche), 23.3 g NaCl, 4 ml 0,5 M EDTA pH 8 (Invitrogen), 5 ml 10% NaN3 in 1 L milliQ and adjusted to pH 7.0). 0.25 mM DTT (Sigma) is added to the thawed samples plates. After removal of the EC buffer, 20 μL of sample is transferred to the ELISA plates. After overnight incubation at 4° C. plates are washed twice with PBS and once with PBST (PBS with 0.05% Tween-20 (Sigma)) and incubated with 35 μL/well biotinylated anti-MMP1 antibody solution (R&D). This secondary antibody is diluted in buffer C (0.82 g NaH2PO4.H2O, 4.82 g Na2HPO4, 46.6 g NaCl, 20 g bovine albumin and 4 mL 0,5M EDTA pH 8 in 2 L milliQ and adjusted to pH 7.0) at a concentration of 5 μg/mL. After 2 h of incubation at RT, plates are washed as described above and incubated with 50 μL/well streptavidin-HRP conjugate (Biosource). Streptavidin-HRP conjugate is diluted in buffer C at a concentration of 0.25 μg/mL. After 45 min, plates are washed as described above and incubated for 5 min with 50 μL/well BM Chem ELISA Substrate (Roche). Readout is performed on the Luminoscan Ascent Luminometer (Labsystems) with an integration time of 200 msec or with an Envision reader (Perkin Elmer).
The increase of MMP1 expression by SFs upon treatment with cytokines relevant in the field of RA (TNF-α, IL1β and OSM) or a combination thereof is shown in FIG. 2 as white bars. For this experiment, SFs are seeded in 96 well plates, 3,000 cells/well. 24 h later, the medium is changed to M199 medium supplemented with 1% FBS. One day after the medium change, cytokines or combinations thereof are added to the cultures, each cytokine being added to a final concentration of 25 ng/mL. 72 h after cytokine addition, the supernatant is collected and processed in the MMP1 ELISA as described in the protocol given above. In parallel with this experiment, SFs are triggered, using the same protocol, with the supernatant of THP1 cells (2-fold diluted in M199+1% FBS) treated with the same cytokines or combinations of cytokines for 48 h in M199 medium+1% FBS. The induction of the MMP1 expression by SFs triggered with the supernatants of TNF-α-treated THP1 cells is stronger (>4.5 fold induction) as compared to the SFs triggered with recombinant TNF-α alone (3-fold induction) and almost equals the 5-fold induction obtained by a mixture of 3 purified cytokines (TNF-α, IL1βb, OSM). […] As the role of TNF-α in the RA pathogenesis is validated (TNF-α-blockers such as Infliximab and Etanercept show some efficacy in the treatment of RA patients) and the THP-1 cells are representative for monocytes/macrophages present in the joint of RA patients, the TNF-α-based trigger mixture prepared by contacting THP-1 cells with TNF-α will contain factors present in the joints of RA patients and subsequently is relevant to RA. This TNF-α-based complex trigger, further referred to as the ‘complex trigger’, will further be used as basis for the ‘MMP assay’. […]

TNF alpha = assay: Septic shock model (LPS-induced TNF release); assay type: in vivo, BALB/cJ female mice; conditions: after injection of LPS, benchmark, FIG. 7
Protocol: Six BALB/cJ female mice (20 g) per group are treated at the intended dosing once, po. Thirty minutes later, LPS (15 μg/kg; E. coli serotype 0111:B4) is injected ip. Ninety minutes later, mice are euthanized and blood is collected. Circulating TNF alpha levels are determined using commercially available ELISA kits. Dexamethasone (5 μg/kg) is used as a reference anti-inflammatory compound.

MAPKAPK5 = biological target: T1, MAPKAPK5 (Homo sapiens, UniProt Q8IW41); assay: MAPKAP-K5 FlashPlate kinase assay; assay type: biochemical; conditions: 0.6 μM ATP, 30 minutes, room temperature
T1 sequence (Q8IW41 1-471 isoform Q8IW41-2): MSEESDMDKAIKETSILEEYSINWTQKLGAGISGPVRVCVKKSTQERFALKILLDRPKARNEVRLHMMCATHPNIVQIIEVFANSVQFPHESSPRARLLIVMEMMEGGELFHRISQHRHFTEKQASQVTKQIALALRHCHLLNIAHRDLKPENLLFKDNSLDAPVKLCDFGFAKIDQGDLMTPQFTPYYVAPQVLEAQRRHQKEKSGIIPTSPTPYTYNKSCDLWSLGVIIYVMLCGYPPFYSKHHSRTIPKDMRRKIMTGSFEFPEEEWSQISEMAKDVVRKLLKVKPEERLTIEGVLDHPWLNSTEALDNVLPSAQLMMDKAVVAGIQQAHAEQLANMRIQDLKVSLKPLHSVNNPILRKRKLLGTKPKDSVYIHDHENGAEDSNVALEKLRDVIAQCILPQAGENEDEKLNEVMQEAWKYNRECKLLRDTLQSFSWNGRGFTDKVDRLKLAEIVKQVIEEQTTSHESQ
Protocol: MAPKAP-K5 reactions are performed in FlashPlate format using 0.1 or 0.2 μCi 33P-ATP; 0.6 μM ATP; 1 mU MAPKAP-K5; 3 μM MAPKAP-K5 peptide substrate, incubated at room temperature for 30 minutes.
The MAPKAP-K5 kinase reaction is performed in a 384 well polypropylene plate (Matrix Technologies) and then transferred to a streptavidin-coated 384 well flashplate (Perkin-Elmer). To wells containing 2 μL test compound or standard inhibitor, 13 μL Enzyme mix or diluent are added using a Hydra (Robbins Scientific). Reactions are started by addition of 10 μL of [2.5×] substrate cocktail using a Multidrop (Thermo-Labsystems), to give final concentrations in the assay of: • 1 mU MAPKAP-K5 • 3 μM MAPKAP-K5 peptide substrate • 0.6 μM ATP • 0.004 μCi [33P]-γ-ATP/μL • 1× reaction buffer
Plates are incubated at room temperature for 30 minutes. Reactions are terminated by the addition of 25 μL EDTA (50 mM) to each well using a Micro-fill (Biotek). Reactions are transferred to a streptavidin-coated flashplate using a Zymark robotic system. Plates are incubated for 60 minutes at room temperature. All wells are washed 3 times with 100 μl phosphate buffered saline using a Tecan plate washer. Radioactivity is determined by scintillation counting of the flashplate (empty wells) on a Packard TopCount.
Enzyme Mix: • Enzyme • 50 mM Tris Hcl (pH 7.5) • 0.1 mM EGTA • 2 mM DTT • 1 mg/mL BSA
Reaction Buffer: • 50 mM Tris Hcl (pH 7.5) • 0.1 mM EGTA • 10 mM Magnesium acetate • 2 mM DTT

[2] = tested on: MMP13 expression in SW1353 chondrosarcoma cell line; assay: MMP13 assay: IL-1/OSM-driven MMP13 expression in SW1353 cells (MMP13 ELISA); assay type: cell-based; conditions: Homo sapiens, IL-1β and OSM, 48 hr
Protocol: The protocol of the MMP13 ELISA is described in section 4.1, then testing of compounds on release of IL-1/OSM-driven MMP13 expression in SW1353 chondrosarcoma cell line is described in section 4.2.
A 384 well format ELISA for measurement of MMP13 was developed. Various primary antibodies were tested, as well as various ELISA protocols. The following protocol is developed and validated to measure MMP13 levels in supernatant of cell cultures in 384 well plates.
Black maxisorb 384 well plates (Nunc 460518) are coated with 35 μl of a buffered solution containing 1.5 μg/mL anti-MMP13 antibody MAB511 (R&D systems). The antibody is diluted in carbonate-bicarbonate coating buffer (1.59 g Na2CO3 (Sigma S-7795) and 2.93 g NaHCO3 (Sigma S-5761) in 1 L MilliQ water, adjusted to pH 9.6). After overnight incubation at 4° C., wells are washed twice with 100 μL PBST (80 g NaCl, 2 g KCl (Sigma), 11.5 g Na2HPO4.7H2O and 2 g KH2PO4 in 10 L milliQ water; pH 7.4+0.05% Tween-20 (Sigma)) and blocked with 100 μL/well blocking buffer (5% non fat dry milk in PBS). After overnight incubation at 4° C., wells are washed twice with 100 μL PBST. The PBST is removed and 35 μL of sample is transferred to the ELISA plates. After 4 hr incubation at RT, plates are washed twice with PBST and incubated for 1 hr at 37° C. with 35 μL/well 1.5 mM APMA solution (a 10 mM APMA stock solution is prepared one day before (35.18 mg APMA (Sigma A-9563) in 10 mL 0.1M NaOH (Merck 1.06469.1000) and stored at 4° C. Before use, the 10 mM APMA stock solution is diluted to 1.5 mM in 1×APMA buffer (10× APMA buffer: 500 mM Tris (Roche 708976), 50 mM CaCl2 (Sigma C-5080), […] ZnCl2 (Sigma Z-0173), 1.5 M NaCl (Calbiochem 567441), 0.5% Brij35 (Sigma 430 AG-6) and adjust to pH 7.0). After activation of MMP13 by APMA, plates are washed again two times with 100 μL PBST/well and 35 μL of substrate solution is added to each well. Substrate solution is prepared as follows: OmniMMP Fluorescent substrate (Biomol P-126) stock solution (2 mM in DMSO, stored at −20° C.) is diluted in 1× OmniMMP buffer (10× OmniMMP buffer: 500 mM Hepes (Sigma H4034), 100 mM CaCl2 (Sigma C5080), 0.5% Brij35 (Sigma 430 AG-6; adjusted to pH 7.0) to a final concentration of 0.01 mM. After an overnight incubation at 37° C., the active MMP13 in the sample has cleaved the substrate and released fluorescence. Readout is performed on the EnVision (Perkin Elmer) using 320 nm excitation/405 nm emission filters.
Human chondrosarcoma cell line SW1353 was acquired from ATCC and grown in DMEM supplemented with 10% heat-inactivated FBS and 1× penicillin/streptomycin (Invitrogen) in a humidified 5% CO2 incubator at 37° C. Aliquots of the cells were frozen and cryopreserved in liquid nitrogen. Starting from a cryopreserved aliquot, cells are further grown by sub-culturing at a 1/5-1/8 ratio twice a week by trypsinisation.
Starting from the compound master stocks (all at 10 mM concentration in 100% DMSO) a 3-fold serial dilution is made in 96-well plates in 100% DMSO. Then, plates are futher diluted 50-fold in M199 medium supplemented with 1% heat-inactivated FBS to obtain an intermediate work stock.
At day 1, SW1353 cells are seeded in 96-well plates (flat bottom, tissue culture treated, Greiner) at a density of 15000 cells/well in 120 μL growth medium. The next day, 15 μL compound out of the intermediate work stock is added. After an incubation period of 60 minutes, which allows the compounds to equilibrate and enter the cells, cells are stimulated with a mixture of IL-1β and OSM, added in a volume of 15 μL to obtain final concentrations of 1 ng/ml IL-1β and 25 ng/ml OSM. For that, stocks of IL-1 (10 μg/ml) and OSM (25 μg/ml) (both PeproTech) were diluted to 10 ng/ml and 250 ng/ml respectively, in M199 medium supplemented with 1% FBS. After incubation for 48 hr, the cell supernatant was harvested and an appropriate dilution was processed in the MMP13 ELISA as described above, delivering raw data (RFU: relative fluorescence units). […]

Row | Compound | IC50 [1] | percentage inhibition of TNF alpha release (TNF alpha) | IC50 (MAPKAPK5) | IC50 [2]
1 | C[C@@H]1C[C@H]2[C@@H]3CCC4=CC(=O)C=C[C@]4(C)[C@@]3(F)[C@@H](O)C[C@]2(C)[C@@]1(O)C(=O)CO [dexamethasone, reference compound] | ~1 nM | 100% |  | 
2 | CC(C)N1C[C@@H]2C[C@H]1CN2c1ccc(Nc2ncc(-c3coc(C(N)=O)c3)n3ncnc23)cn1 [Compound 7, 4-{8-(6-((1S,4S)-5-isopropyl-2,5-diazabicyclo[2.2.1]heptan-2-yl)pyridin-3-ylamino)-[1,2,4]triazolo[1,5-a]pyrazin-5-yl}-furan-2-carboxamide] |  |  | 0.01 to 100 nM | 1 to 500 nM
3 | CC(C)N1CC2CCC(C1)N2c1ccc(Nc2ncc(-c3coc(C(N)=O)c3)n3ncnc23)cc1 [Compound 13, 4-{8-(4-(3-isopropyl-3,8-diazabicyclo[3.2.1]octan-8-yl)phenylamino)[1,2,4]-triazolo[1,5-a]pyrazin-5-yl}-furan-2-carboxamide] |  |  | 0.01 to 100 nM | > 1000 nM
